From PubChem BioAssay AID1996
Converted amounts (≈) assume the structure as drawn.

Details: buffer; pH 7.4; 200.0 µM

SMILES | solubility kinetic [µg/mL]
O=C(NCc1cccnc1)c1ccccc1NC(=O)c1c(F)cccc1F | > 55.1
O=C(O)CNC(=S)N(Cc1ccccc1)Cc1ccccc1F | 47.4 (≈ 143 µM)
CC(C)[C@H](NC(=O)c1ccccc1)C(=O)NC1=NCCS1 | 44.6 (≈ 146 µM)
COC(=O)CCN(C(=O)c1cccc([N+](=O)[O-])c1)c1ccccn1 | > 49.4
CC(=O)c1sc(=S)n(-c2ccccc2)c1C | 9.4 (≈ 37.7 µM)
Cc1cc(C)cc(NC(=O)Nc2cc(S(=O)(=O)N(C)C)ccc2C)c1 | 0.6 (≈ 1.66 µM)
O=C1COc2ccc(NC(=O)c3ccccc3C(=O)O)cc2N1 | 40.5 (≈ 130 µM)
NC(=O)CN1C(=O)C(=O)N(Cc2ccc(Cl)cc2)C1=O | > 44.4
COc1ccc(S(=O)(=O)N2CCCCC2)cc1NC(=O)C1CC(=O)N(Cc2ccco2)C1 (stereo not given) | > 69.2
Cc1cc(C)c2oc(-c3cccc(N)c3)nc2c1 | 3 (≈ 12.6 µM)
CC(C)(C)c1ccc(CCC2OCC(CN3CCOCC3)O2)cc1 (stereo not given) | 40 (≈ 120 µM)
O=C(CCS(=O)(=O)c1ccccc1)Nc1ccc(S(=O)(=O)Nc2nccs2)cc1 | 23.6 (≈ 52.3 µM)
O=C(CN1CC=C(c2ccccc2)CC1)NC(=O)NC1CCCCC1 | 22.1 (≈ 64.7 µM)
Cc1ccc(-c2csc(NC(=O)c3c(C)noc3C)n2)s1 | 15.8 (≈ 49.5 µM)
CC(/C=C1\SC(=Nc2cccnc2)NC1=O)=C\c1ccccc1 | 1.7 (≈ 5.29 µM)
Cn1c(=O)c([N+](=O)[O-])c(N2CCSCC2)c2ccccc21 | 2.2 (≈ 7.2 µM)
C=CCNC(=S)NC(=O)c1csc([N+](=O)[O-])c1 | 38.5 (≈ 142 µM)
CCOC(=O)Cn1c(=O)cc(C)c2ccccc21 | > 36.8
CN(C)CCCN1C(=O)c2cc3ccccc3cc2C1=O | 27.8 (≈ 98.5 µM)
CC(C)n1c(CN2CCN(Cc3ccccc3)CC2)nc2ccccc21 | 34.8 (≈ 99.9 µM)

SMILES | solubility kinetic [µg/mL]
Cc1cccc(OCCC(=O)Nc2ccc(C)c(S(=O)(=O)N3CCOCC3)c2)c1 | 21.5 (≈ 51.4 µM)
Cc1ccc(NC(=S)NCCN2CCOCC2)cc1F | > 44.6
COc1ccc(NC(=O)CC2(CC(=O)O)CCCC2)cc1 | 43.6 (≈ 150 µM)
Cc1ccc(NC(=O)c2cc(C)no2)cc1 | 26.2 (≈ 121 µM)
COc1ccc(CCNCc2ccccc2F)cc1.O=C(O)C(=O)O | 46.4
O=C(NCc1cccc(C(F)(F)F)c1)c1ccc[nH]1 | > 40.2
CC(=O)c1c(O)c2ccccc2n(C2CCCCC2)c1=O | 1.4 (≈ 4.91 µM)
N/C(=N\OC(=O)Cc1ccc(Cl)cc1)c1ccncc1 | 27.1 (≈ 93.5 µM)
CCOC(=O)N1CCN(CCC(=O)Nc2ccccc2)CC1 | 32.2 (≈ 105 µM)
CCOc1ccc(N(CC(=O)Nc2cccc(C)c2)S(C)(=O)=O)cc1 | 35.6 (≈ 98.2 µM)
N#CCSc1ncnc2ccccc12 | 28.1 (≈ 140 µM)
Cc1ccc(S(=O)(=O)NC(=S)c2ccccc2)cc1 | > 43.7
C[C@@H](C(=O)OCC(=O)c1ccc(F)c(F)c1)N1C(=O)C2CCCCC2C1=O (stereo not given in full) | > 56.9
Cc1c(C(=O)N2CCOCC2)cc(C(C)(C)C)n1-c1ccccc1 | 45.3 (≈ 139 µM)
CC(C)(C)NC(=O)NCc1cccnc1 | 29.4 (≈ 142 µM)
O=C(CNCCO)Nc1ccc(F)c(Cl)c1 | > 37
CCc1cc2c(=O)n(-c3ccccc3)c(SCC(=O)O)nc2s1 | > 52
CC1CCCN(S(=O)(=O)c2ccc(Cl)s2)C1 (stereo not given) | 10.8 (≈ 38.6 µM)
O=C(Cc1c[nH]c2ccccc12)NCc1ccccc1F | 42.3 (≈ 150 µM)
COc1ccc2c(c1)Sc1ccccc1N2 | 2.7 (≈ 11.8 µM)

SMILES | solubility kinetic [µg/mL]
Cc1cc(C=C2C(=O)NC(=O)NC2=O)c(C)n1-c1cccnc1 | 10.6 (≈ 34.2 µM)
O=C(O/N=C/c1ccc(Cl)cc1)C1CCCCC1 | 2.4 (≈ 9.03 µM)
O=C1CCC([N+](=O)[O-])C(c2ccccc2Br)N1 (stereo not given) | > 44.9
Cn1c(=O)c(C(=O)NC2CCCCCC2)c(O)c2ccccc21 | < 0.3
O=[N+]([O-])c1cccc2c(Cl)ccnc12 | > 31.3
CC(NC(=O)c1ccc(C#N)cc1)C1CC2CCC1C2 (stereo not given) | > 40.3
CC(=O)c1ccc(NC(=O)C2CCCO2)cc1 (stereo not given) | > 35
CC(OC(=O)CC1CCCC1)C(=O)Nc1ccc(Cl)cn1 (stereo not given) | 30.9 (≈ 99.4 µM)
CCC1(c2ccccc2)C(=O)NCNC1=O | > 32.7
CN(CC(=O)N1CCOCC1)S(=O)(=O)c1ccc2ccccc2c1 | > 52.3
CCOc1ccc(CN(C)C(=O)c2ccc3ccccc3n2)cc1 | 34.7 (≈ 108 µM)
CC(=O)c1ccc(N2CCN(CC3CCCCC3)CC2)cc1 | 22 (≈ 73.2 µM)
COc1cc(S(=O)(=O)NCCCn2ccnc2)ccc1Cl | > 49.5
CCCC(=O)N(Cc1cc(=O)[nH]c2ccccc12)c1ccccc1 | > 48.1
O=C(NCCNC(=O)c1ccccc1[N+](=O)[O-])c1ccccc1[N+](=O)[O-] | 11.4 (≈ 31.8 µM)
O=C(CCNS(=O)(=O)c1ccc(OC(F)(F)F)cc1)NC1CC1 | > 52.8
O=C(COCc1cc(-c2ccco2)on1)NC1CCCCC1 | 42.4 (≈ 139 µM)
N#Cc1ccccc1NC(=O)CN1CCOCC1 | > 36.8
O=C(c1ccc(C(F)(F)F)cc1)C1CCCN(C(=O)c2cnccn2)C1 (stereo not given) | 45.6 (≈ 126 µM)
O=C(NOCc1ccccc1)c1ccc([N+](=O)[O-])cc1 | > 40.8
